The supplement of paper PMC8149375

How the values were obtained:
Settings in all cases: treatment: drug + dasatinib (fixed dose, not stated); 5 days
769-P [1] = assay: GI50 of drug in presence of dasatinib; higher = less potent
Procedure: (§1)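 Primary HTS combination arm: 8 RCC cell lines treated with 8 doses (up to 10 uM) of each library drug plus a fixed dose of dasatinib (dose not stated) for 5 days; viability read by CellTiter-Glo and normalised to DMSO. GI50 was fitted with XLfit, AUC is the area under the dose-response curve, and minimum viability is the lowest fraction of DMSO viability across doses.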

786-O [2] = assay: as above
Procedure: as §1

A498 [3] = assay: as above
Procedure: as §1

ACHN [4] = assay: as above
Procedure: as §1

CAKI-1 [5] = assay: as above
Procedure: as §1

SN12C [6] = assay: as above
Procedure: as §1

TK-10 [7] = assay: as above
Procedure: as §1

UO-31 [8] = assay: as above
Procedure: as §1

769-P [9] = assay: minimum viability across doses, drug + dasatinib, relative to DMSO (fraction); higher = less growth inhibition
Procedure: as §1

786-O [10] = assay: as above
Procedure: as §1

A498 [11] = assay: as above
Procedure: as §1

ACHN [12] = assay: as above
Procedure: as §1

CAKI-1 [13] = assay: as above
Procedure: as §1

SN12C [14] = assay: as above
Procedure: as §1

TK-10 [15] = assay: as above
Procedure: as §1

UO-31 [16] = assay: as above
Procedure: as §1

769-P [17] = assay: AUC of dose-response viability curve, drug + dasatinib, normalised to DMSO (arbitrary (AUC of normalised viability)); higher = less growth inhibition
Procedure: as §1

786-O [18] = assay: as above
Procedure: as §1

A498 [19] = assay: as above
Procedure: as §1

ACHN [20] = assay: as above
Procedure: as §1

CAKI-1 [21] = assay: as above
Procedure: as §1

SN12C [22] = assay: as above
Procedure: as §1

TK-10 [23] = assay: as above
Procedure: as §1

UO-31 [24] = assay: as above
Procedure: as §1

Compound	GI50 of drug (769-P [1]) [nM]	GI50 of drug (786-O [2]) [nM]	GI50 of drug (A498 [3]) [nM]	GI50 of drug (ACHN [4]) [nM]	GI50 of drug (CAKI-1 [5]) [nM]	GI50 of drug (SN12C [6]) [nM]	GI50 of drug (TK-10 [7]) [nM]	GI50 of drug (UO-31 [8]) [nM]	minimum viability across doses (769-P [9])	minimum viability across doses (786-O [10])	minimum viability across doses (A498 [11])	minimum viability across doses (ACHN [12])	minimum viability across doses (CAKI-1 [13])	minimum viability across doses (SN12C [14])	minimum viability across doses (TK-10 [15])	minimum viability across doses (UO-31 [16])	AUC of dose-response viability curve (769-P [17])	AUC of dose-response viability curve (786-O [18])	AUC of dose-response viability curve (A498 [19])	AUC of dose-response viability curve (ACHN [20])	AUC of dose-response viability curve (CAKI-1 [21])	AUC of dose-response viability curve (SN12C [22])	AUC of dose-response viability curve (TK-10 [23])	AUC of dose-response viability curve (UO-31 [24])
CC(C)(C)c1cc(/C=C(\C#N)C(N)=S)cc(C(C)(C)C)c1O [Tyrphostin AG 879 (AG 879)] + Cc1nc(Nc2ncc(C(=O)Nc3c(C)cccc3Cl)s2)cc(N2CCN(CCO)CC2)n1 [dasatinib]	> 10000	< 3	> 10000	> 10000	7590	> 10000	> 10000	> 10000	0.689	0.458	1	0.556	0.45	0.706	0.653	1.26	2.55	1.83	3.69	2.11	2.38	2.56	2.39	5.04
Cc1cc(Nc2cc(N3CCN(C)CC3)nc(Sc3ccc(NC(=O)C4CC4)cc3)n2)n[nH]1 [VX-680 (MK-0457, Tozasertib)] + Cc1nc(Nc2ncc(C(=O)Nc3c(C)cccc3Cl)s2)cc(N2CCN(CCO)CC2)n1 [dasatinib]	325	152	1110	145	95.1	511	> 10000	3330	0.269	0.308	0.183	0.139	0.077	0.0667	0.536	0.0311	1.79	1.88	2.4	1.68	1.6	1.97	2.73	2.75
COc1cc2c(Nc3ccc(Br)cc3F)ncnc2cc1OCC1CCN(C)CC1 [Vandetanib (Zactima)] + Cc1nc(Nc2ncc(C(=O)Nc3c(C)cccc3Cl)s2)cc(N2CCN(CCO)CC2)n1 [dasatinib]	1130	5420	7710	305	2210	> 10000	1490	1880	0.157	0.332	0.366	0.0849	0.0882	0.456	0.161	0.0159	2.01	2.55	3.11	1.82	2.07	2.48	2.46	2.64
CCCS(=O)(=O)Nc1ccc(F)c(C(=O)c2c[nH]c3ncc(-c4ccc(Cl)cc4)cc23)c1F [Vemurafenib (PLX4032)] + Cc1nc(Nc2ncc(C(=O)Nc3c(C)cccc3Cl)s2)cc(N2CCN(CCO)CC2)n1 [dasatinib]	> 10000	3840	> 10000	5760	> 10000	> 10000	9220	> 10000	0.618	0.326	0.838	0.403	0.57	0.719	0.6	0.853	2	2.11	3.37	2.05	2.39	2.62	2.4	3.4
c1cncc(CN2CCC(n3ncc4c(N5CCOCC5)nc(-c5ccc6[nH]ccc6c5)nc43)CC2)c1 [WAY-600] + Cc1nc(Nc2ncc(C(=O)Nc3c(C)cccc3Cl)s2)cc(N2CCN(CCO)CC2)n1 [dasatinib]	688	524	4490	91.2	306	523	433	1100	0.0156	0.00323	0.0551	0.0438	0.0191	0.119	0.045	0.0101	1.93	1.56	3.1	1.39	1.63	1.85	1.83	2.62
COc1cc2ncnc(Nc3ccc(O)c(Br)c3)c2cc1OC [WHI-P154] + Cc1nc(Nc2ncc(C(=O)Nc3c(C)cccc3Cl)s2)cc(N2CCN(CCO)CC2)n1 [dasatinib]	2580	> 10000	> 10000	33.7	2980	> 10000	1920	> 10000	0.348	0.547	0.937	0.218	0.211	0.603	0.422	1.22	2.22	2.26	3.93	1.42	2.26	2.51	2.16	5.45
C[C@H](NC(=O)/C(C#N)=C/c1cccc(Br)n1)c1ccccc1 [WP1066] + Cc1nc(Nc2ncc(C(=O)Nc3c(C)cccc3Cl)s2)cc(N2CCN(CCO)CC2)n1 [dasatinib]	3930	4310	> 10000	8.56	3970	> 10000	> 10000	7910	0.0555	0.0254	0.638	0.0689	0.285	0.385	0.713	0.00793	2.49	2.35	3.03	1.48	2.28	2.36	2.77	4.08
CCC[C@H](NC(=O)/C(C#N)=C/c1cccc(Br)n1)c1ccccc1 [WP1130] + Cc1nc(Nc2ncc(C(=O)Nc3c(C)cccc3Cl)s2)cc(N2CCN(CCO)CC2)n1 [dasatinib]	3100	279	4100	4370	2190	3930	4750	4240	0.0169	0.00681	0.02	0.00233	0.0305	0.00838	0.191	0.0123	2.25	1.79	2.69	1.95	2.12	2.37	2.43	3.53
COC(=O)Nc1ccc(-c2nc(N3CCOCC3)c3cnn(C4CCN(C(=O)OC)CC4)c3n2)cc1 [WYE-354] + Cc1nc(Nc2ncc(C(=O)Nc3c(C)cccc3Cl)s2)cc(N2CCN(CCO)CC2)n1 [dasatinib]	457	381	1980	74.7	345	800	329	894	0.122	0.307	0.262	0.0892	0.0632	0.215	0.208	0.019	1.84	1.76	2.63	1.33	1.71	2.08	1.83	2.63
COC(=O)Nc1ccc(-c2nc(N3CCOCC3)c3cnn(C4CCN(Cc5cccnc5)CC4)c3n2)cc1 [WYE-687] + Cc1nc(Nc2ncc(C(=O)Nc3c(C)cccc3Cl)s2)cc(N2CCN(CCO)CC2)n1 [dasatinib]	481	618	2280	83.3	153	414	231	572	0.074	0.212	0.251	0.0388	0.0365	0.13	0.058	0.00676	1.81	2.02	2.89	1.38	1.51	1.78	1.79	2.8
C=CC(=O)Nc1cccc(Oc2nc(Nc3ccc(N4CCN(C)CC4)cc3)ncc2Cl)c1 [WZ3146] + Cc1nc(Nc2ncc(C(=O)Nc3c(C)cccc3Cl)s2)cc(N2CCN(CCO)CC2)n1 [dasatinib]	523	878	3060	72.3	345	997	373	553	0.056	0.0305	0.301	0.034	0.00112	0.0852	0.0372	0.00923	1.85	1.88	2.76	1.21	1.47	1.92	1.76	2.32
C=CC(=O)Nc1cccc(Sc2nc(Nc3ccc(N4CCN(C)CC4)cc3)ncc2Cl)c1 [WZ8040] + Cc1nc(Nc2ncc(C(=O)Nc3c(C)cccc3Cl)s2)cc(N2CCN(CCO)CC2)n1 [dasatinib]	1160	1480	8300	127	1650	3880	652	2340	0.0198	0.00713	0.113	0.00268	0.00162	0.00446	0.0196	0.0164	2.02	2.05	3.23	1.5	1.96	2.18	1.96	2.72
COC[C@H]1OC(=O)c2coc3c2[C@@]1(C)C1=C(C3=O)[C@@H]2CCC(=O)[C@@]2(C)C[C@@H]1OC(C)=O [Wortmannin] + Cc1nc(Nc2ncc(C(=O)Nc3c(C)cccc3Cl)s2)cc(N2CCN(CCO)CC2)n1 [dasatinib]	> 10000	32.5	84.8	41.4	15.8	53.4	> 10000	> 10000	0.487	0.00996	0.153	0.425	0.123	0.342	0.633	0.688	2.25	1.62	2.76	1.87	1.38	2.16	2.46	2.3
Cc1ccc(S(=O)(=O)Nc2nc3ccccc3nc2Nc2ccc3nsnc3c2)cc1 [XL147] + Cc1nc(Nc2ncc(C(=O)Nc3c(C)cccc3Cl)s2)cc(N2CCN(CCO)CC2)n1 [dasatinib]	> 10000	> 10000	> 10000	> 10000	> 10000	> 10000	> 10000	> 10000	0.634	0.642	0.924	0.551	0.764	0.651	0.743	0.909	2.42	2.67	3.43	2.12	2.82	2.42	2.87	3.44
